Series [1] concerns pancreatic Langerhans' islet of rats. In words: Insulin secretion promoting action in pancreatic Langerhans' islet of rats. The series is classed as cell-based, rat. The following applies: test compound 100 μmol/L, 7.5 mmol/L glucose, 1 hr incubation; insulin secretion amount relative to control group, amended by DNA amount. How it is done:
Insulin Secretion Promoting Action in Pancreatic Langerhans' Islet of Rats
The pancreas of 8-week-old male SD rat was treated with collagenase and the isolated Langerhans' islet was preincubated for 1 hr in a medium (KRB) containing 2.8 mmol/L glucose in a 24 well incubation plate, which was followed by incubation for 1 hr in KRB containing the test compound (100 μmol/L, see Table 2) and 7.5 mmol/L glucose (control group was free of test compound). The medium was recovered and the amount of the secreted insulin was measured using a radioimmunoassay kit (trademark: SHIONORIA insulin kit (manufactured by Shionogi & Co., Ltd.)). The Langerhans' islet was lysed by ultrasonication and the DNA amount was measured, based on which the insulin level in the medium was amended. The insulin secretion amount of the test compound group is expressed in a value (%) relative to the control group and shown in Table 2.

The next series concerns Male SD rats. In words: Hypoglycemic action in rats (oral glucose tolerance test). The series is classed as in vivo. The following applies: Rattus norvegicus, 0.5 h, male SD rats fasted overnight, glucose load 2 g/kg 60 min later, blood drawn 30 min after starting glucose loading, read-out: glucose level (% of control); for response vs control in vivo at 30 mg/kg: 30 mg/kg body weight oral; for response vs control in vivo at 50 mg/kg: 50 mg/kg body weight oral. As to the method:
Hypoglycemic Action in Rats
Male SD rats (7 weeks of age, 5 per group) were fasted overnight and blood was drawn from the tail vein to measure the glucose level before administration of the test compound. Then the test compound (30 mg/kg body weight/10 mL (compounds of Examples 8, 16, 66, 68, 79, 94, 123) or 50 mg/kg body weight/10 mL (compounds of Examples 58, 70)) suspended in 0.5% methyl cellulose was orally administered to the rats using a gastric tube. Oral glucose tolerance test (2 g/kg body weight/10 mL) was started 60 min later. Blood was drawn at 30 min after starting the glucose loading, and glucose level was measured. The glucose level was measured using an automatic analyzer (HITACHI 7070).

Turning to `O=C(O)CCc1cnoc1-c1ccc(Cl)cc1` [Example 8, 3-[5-(4-chlorophenyl)-4-isoxazolyl]propionic acid], the “insulin secretion promoting action (%)” value in series [1] worked out at 256%. For the same compound, the response vs control in vivo at 30 mg/kg in the series on Male SD rats came to 85%.

Regarding `OCCCc1cnoc1-c1ccc(F)c(Cl)c1` [Example 94, 3-[5-(3-chloro-4-fluorophenyl)-4-isoxazolyl]propan-1-ol], in the series with Male SD rats, the response vs control in vivo at 30 mg/kg is 81%.

As usually defined, the melting point is the temperature, or range, at which the solid turns liquid. `O=C(O)CCc1cnoc1-c1ccc(F)c(Cl)c1` [Example 92, 3-[5-(3-chloro-4-fluorophenyl)-4-isoxazolyl]propionic acid] registered a melting point of 118 to 119 °C. Besides, the “insulin secretion promoting action (%)” value in series [1] amounted to 156%.

`O=C(O)CCc1cnoc1-c1ccc(F)c(F)c1` [Example 77, 3-[5-(3,4-difluorophenyl)-4-isoxazolyl]propionic acid] registered a melting point of 102 to 103 °C. Also, the “insulin secretion promoting action (%)” value in series [1] came out at 201%.

In the case of `OCCCc1cnoc1-c1ccc(Cl)s1` [Example 66, 3-[5-(5-chloro-2-thienyl)-4-isoxazolyl]propan-1-ol], the response vs control in vivo at 30 mg/kg in the series on Male SD rats came to 80%.

As to `OCCCc1cnoc1-c1ccc(Cl)cc1` [Example 16, 3-[5-(4-chlorophenyl)-4-isoxazolyl]propan-1-ol], the response vs control in vivo at 30 mg/kg with Male SD rats is 88%.

Turning to `O=C(O)CCc1cnoc1-c1ccc(Cl)c(Cl)c1` [Example 70, 3-[5-(3,4-dichlorophenyl)-4-isoxazolyl]propionic acid], the melting point lay in the range of 171 to 172 °C. In addition, the “insulin secretion promoting action (%)” value in series [1] came out at 235%. Further, the response vs control in vivo at 50 mg/kg with Male SD rats was 88%.

Take `O=C(O)CCc1cnoc1-c1ccc(Cl)s1` [Example 64, 3-[5-(5-chloro-2-thienyl)-4-isoxazolyl]propionic acid]: the melting point fell in the range of 138 to 139 °C. For the same compound, in series [1], the “insulin secretion promoting action (%)” value was 273%.

Compound `O=C(O)CCc1cnoc1-c1cc(Cl)c(Cl)s1` [Example 123, 3-[5-(4,5-dichloro-2-thienyl)-4-isoxazolyl]propionic acid] yielded a melting point of 142 to 143 °C. In addition, the response vs control in vivo at 30 mg/kg in the series on Male SD rats was found to be 86%.

For `OCCCc1cnoc1-c1ccc(F)c(F)c1` [Example 79, 3-[5-(3,4-difluorophenyl)-4-isoxazolyl]propan-1-ol], the response vs control in vivo at 30 mg/kg in the series on Male SD rats turned out to be 77%.

On to `O=C(O)CCc1cnoc1-c1ccc(Cl)c(F)c1` [Example 108, 3-[5-(4-chloro-3-fluorophenyl)-4-isoxazolyl]propionic acid], for which the melting point lay within 139 to 140 °C.

As to `O=C(O)CCc1cnoc1-c1ccc(C(F)(F)F)cc1` [Example 10, 3-[5-(4-trifluoromethylphenyl)-4-isoxazolyl]propionic acid], the melting point was 171 to 172 °C.

On to `OCCCc1cnoc1-c1ccc(F)cc1` [Example 58, 3-[5-(4-fluorophenyl)-4-isoxazolyl]propan-1-ol], for which the response vs control in vivo at 50 mg/kg in the series with Male SD rats is 85%.

For `OCCCc1cnoc1-c1ccc(Cl)c(Cl)c1` [Example 68, 3-[5-(3,4-dichlorophenyl)-4-isoxazolyl]propan-1-ol], in the series with Male SD rats, the response vs control in vivo at 30 mg/kg turned out to be 75%.

These data come from patent publication US7022725B2, “Isoxazole derivatives” (Takeda Pharmaceutical Company Limited, priority 2000, dated 2006).
